The source of these data is patent US20260183303A1, “PDK1 REGULATORY COMPOUND AND COMPOSITION CONTAINING THE SAME” (PROVIBIO CO., LTD., priority 2024, published 2026).

The test has as its system T cells isolated from mouse spleens. The test can be described thus: T cell proliferation inhibition (CFSE flow cytometry, anti-CD3/anti-CD28 activation). The format is cell-based, C57BL/6 mice. The conditions noted are these: mouse spleen T cells, CD3/CD28 activated, cultured three days. How it is done:
To verify the T cell proliferation inhibitory effect of the compounds according to the present invention, the following experiment was performed based on flow cytometry analysis using carboxyfluorescein diacetate succinimidyl ester (CFSE), a fluorescent dye that binds to intracellular molecules via covalent bonds.
Spleens were extracted from 7-week-old C57BL/6 mice, ground, and then separated into single cells using a strainer ([…], SPL). Red blood cells were removed using ACK (Ammonium-Chloride-Potassium) lysis buffer to isolate white blood cells.
Finally, using a MACS Magnetic Stand and LS column, T cells were isolated from the spleen.
The T cells isolated from the spleen were resuspended in 1 mL of free medium (RPMI-1640+200 U/mL penicillin+200 μg/mL streptomycin), and 0.3 μL of CFSE (10 mM) was added. The mixture was incubated at 37° C. for 5 minutes.
Free medium (10 mL) was added to stop the reaction, and the cells were centrifuged to obtain the cell pellet.
RPMI 1640 medium containing 10% FBS, 100 U/mL penicillin, 100 μg/mL streptomycin, and resuspended the cells. The cells were then seeded into a 96-well plate at a density of 2×10^5 cells per well and activated with CD3 and CD28 antibodies ([…]) to activate T cells.
The compound diluted in DMSO was added at concentrations of 10 nM, 100 nM, 1 μM, […], 30 μM, and 50 µM, with three wells per concentration, and cultured at 37° C. and 5% CO2 for three days. The cells were then analyzed using a FACS Canto instrument.
The proliferation inhibition rate (%) was calculated using the following formula: […]
(In general: In flow cytometry, cells or beads pass a laser one at a time.)

Consider `Nc1ncccc1C(=O)NCCCCCCCCCCCCN1CCC2CCCCC2C1` (stereo not shown) [Compound 16, 2-Amino-N-(12-(Octahydroisoquinolin-2(1H)-Yl)Dodecyl) Nicotinamide], for which the “Proliferation inhibition rate (%)” value reads like this: (1 μM) 100.00%; (10 μM) 100.00%; (30 μM) 100.00%; (50 μM) 100.00%.
`Nc1ncccc1C(=O)NCCCCCCCCCCCCN1CCc2ccccc2C1` [Compound 17, 2-Amino-N-(12-(3,4-dihydroisoquinolin-2(1H)-yl)dodecyl) nicotinamide]: the “Proliferation inhibition rate (%)” value reads like this: (10 nM, listed as PBK-2024-004, 0.01 µM) 0.00%; (100 nM, listed as PBK-2024-004, 0.1 µM) −14.00%; (1 μM, listed as PBK-2024-004, 1 µM) 100.00%; (10 μM, listed as PBK-2024-004, 10 µM) 100.00%.
On to `CC1(C)CCN(CCCCCCCCCCCCNC(=O)c2cccnc2N)C1` [Compound 22, 2-Amino-N-(12-(3,3-dimethylpyrrolidin-1-yl)dodecyl) nicotinamide], for which the “Proliferation inhibition rate (%)” value by setting is: (10 nM) −0.80%; (100 nM) 100.00%; (1 μM) 100.00%; (10 μM) 100.00%; (30 μM) 100.00%; (50 μM) 100.00%.
As for `COC1CCN(CCCCCCCCCCCCNC(=O)c2cccnc2N)C1` (stereo not shown) [Compound 32, 2-Amino-N-(12-(3-methoxypyrrolidin-1-yl)dodecyl) nicotinamide], the “Proliferation inhibition rate (%)” value runs as follows: (10 nM, listed as PBK-2024-024, 0.01 µM) 0.29%; (50 μM) 100.00%.
As to `CN(CCCCCCCCCCCCNC(=O)c1cccnc1N)C1CCCCC1` [Compound 34, 2-Amino-N-(12-(cyclohexyl(methyl)amino)dodecyl) nicotinamide], the “Proliferation inhibition rate (%)” value runs as follows: (100 nM) 100.00%; (1 μM) 100.00%; (10 μM) 100.00%; (30 μM) 100.00%; (50 μM) 100.00%.
Turning to `CC1CN(CCCCCCCCCCCCNC(=O)c2cccnc2N)C(C)CN1.Cl` (stereo not shown) [Compound 36, 2-Amino-N-(12-(2,5-dimethylpiperazin-1-yl)dodecyl) nicotinamide hydrochloride], the “Proliferation inhibition rate (%)” value by setting is: (100 nM) 100.00%; (1 μM) 100.00%; (10 μM) 100.00%; (30 μM) 100.00%; (50 μM) 100.00%.
In the case of `C[C@H]1CNCCN1CCCCCCCCCCCCNC(=O)c1cccnc1N.Cl` [Compound 37, (S)-2-Amino-N-(12-(2-methylpiperazin-1-yl)dodecyl) nicotinamide hydrochloride], the “Proliferation inhibition rate (%)” value reads like this: (1 μM) 100.00%; (10 μM) 100.00%; (30 μM) 100.00%; (50 μM) 100.00%.
For `CC1CCCN(CCCCCCCCCCCCNC(=O)c2cccnc2N)CC1` (stereo not shown) [Compound 39, 2-Amino-N-(12-(4-methylazepan-1-yl)dodecyl) nicotinamide], the “Proliferation inhibition rate (%)” value (100 nM) came out at 100.00%; the “Proliferation inhibition rate (%)” value (1 μM) is listed as 100.00%; the “Proliferation inhibition rate (%)” value (10 μM) came to 100.00%; the “Proliferation inhibition rate (%)” value (30 μM) stood at 100.00%; the “Proliferation inhibition rate (%)” value (50 μM) amounted to 100.00%.
For `CC1CN(C)C(CCCCCCCCCCCCNc2ccc3cncnc3n2)N1` (stereo not shown) [Compound 43], the “Proliferation inhibition rate (%)” value by setting is: (100 nM) 100.00%; (1 μM) 100.00%; (10 μM) 100.00%; (30 μM) 100.00%; (50 μM) 100.00%.
`Nc1ncccc1C(=O)NCCCCCCCCCCCCN1CCC(O)CC1` [Compound 48, 2-Amino-N-(12-(4-hydroxypiperidin-1-yl)dodecyl) nicotinamide]: the “Proliferation inhibition rate (%)” value reads like this: (100 nM) 100.00%; (1 μM) 100.00%; (10 μM) 100.00%; (30 μM) 100.00%; (50 μM) 100.00%.
Regarding `CN(CCCCCCCCCCCCNC(=O)c1cccnc1N)C(C)(C)C` [Compound 53, 2-Amino-N-(12-(tert-butyl(methyl)amino)dodecyl) nicotinamide], the “Proliferation inhibition rate (%)” value reads like this: (100 nM) 100.00%; (1 μM) 100.00%; (10 μM) 100.00%; (30 μM) 100.00%; (50 μM) 100.00%.
On to `Nc1ncccc1C(=O)NCCCCCCCCCCCCN1CCN(CCO)CC1` [Compound 54, 2-Amino-N-(12-(4-(2-hydroxyethyl)piperazin-1-yl)dodecyl) nicotinamide], for which the “Proliferation inhibition rate (%)” value was 100.00% (100 nM); 100.00% (1 μM); 100.00% (10 μM); 100.00% (30 μM); 100.00% (50 μM).
Turning to `COC1CCN(CCCCCCCCCCCCNC(=O)c2cccnc2N)CC1` [Compound 94, 2-amino-N-(12-(4-methoxypiperidin-1-yl)dodecyl) nicotinamide], the “Proliferation inhibition rate (%)” value reads like this: (100 nM) 100.00%; (1 μM) 100.00%; (10 μM) 100.00%; (30 μM) 100.00%; (50 μM) 100.00%.
With `Nc1ncccc1C(=O)NCCCCCCCCCCCCN1CCN(C=O)CC1` [Compound 97, 2-amino-N-(12-(4-formylpiperazin-1-yl)dodecyl) nicotinamide], the “Proliferation inhibition rate (%)” value runs as follows: (1 μM) 100.00%; (10 μM) 100.00%; (30 μM) 100.00%; (50 μM) 100.00%.
For the compound `Nc1ncccc1C(=O)NCCCCCCCCCCCCN1CCN(C(=O)C2CC2)CC1` [Compound 99, 2-amino-N-(12-(4-(cyclopropanecarbonyl)piperazin-1-yl)dodecyl) nicotinamide], the “Proliferation inhibition rate (%)” value (10 nM) was −12.13%; the “Proliferation inhibition rate (%)” value (100 nM) turned out to be 100.00%; the “Proliferation inhibition rate (%)” value (1 μM) was 100.00%; the “Proliferation inhibition rate (%)” value (10 μM) is given as 100.00%; the “Proliferation inhibition rate (%)” value (30 μM) came to 100.00%; the “Proliferation inhibition rate (%)” value (50 μM) was found to be 100.00%.
Consider `CC(C)(C)OC(=O)NC1CCN(CCCCCCCCCCCCNC(=O)c2cccnc2N)CC1` [Compound 101, tert-Butyl (1-(12-(2-aminonicotinamido)dodecyl)piperidin-4-yl) carbamate], for which the “Proliferation inhibition rate (%)” value runs as follows: (10 nM) −0.15%; (100 nM) 100.00%; (1 μM) 100.00%; (10 μM) 100.00%; (30 μM) 100.00%; (50 μM) 100.00%.
Take `CC(C)N1CCN(CCCCCCCCCCCCNC(=O)c2cccnc2N)CC1` [Compound 104, 2-Amino-N-(12-(4-isopropylpiperazin-1-yl)dodecyl) nicotinamide]: the “Proliferation inhibition rate (%)” value (10 nM) was 100.00%; the “Proliferation inhibition rate (%)” value (100 nM) is recorded as 100.00%; the “Proliferation inhibition rate (%)” value (1 μM) is reported as 100.00%; the “Proliferation inhibition rate (%)” value (10 μM) is given as 100.00%; the “Proliferation inhibition rate (%)” value (30 μM) stood at 100.00%; the “Proliferation inhibition rate (%)” value (50 μM) was 100.00%.
On to `Nc1ncccc1C(=O)NCCCCCCCCCCCCn1ccc2c(Cl)c(I)cnc21` [Compound 109, 2-Amino-N-(12-(4-chloro-5-iodo-1H-pyrrolo[2,3-b]pyridin-1-yl)dodecyl) nicotinamide], for which the “Proliferation inhibition rate (%)” value by setting is: (10 nM) 0.15%; (100 nM) 8.48%; (1 μM) 20.91%; (10 μM) 100.00%; (30 μM) 100.00%; (50 μM) 100.00%.
